{"source": "patent US7951928B2", "about": "“Gene encoding a protein and preventive/remedy for neurodegenerative diseases such as polyglutamine diseases by utilizing the same” (Tokyo Medical and Dental University, priority 2004, dated 2011)", "key": {"[1]": {"test_system": "primary cultured cortical neurons", "assay": "Measurement of uptake of BrU (transcription) in AMA-treated cortical neurons", "type": "cell-based, rat", "settings": "three different concentrations of AMA"}, "[2]": {"test_system": "primary cultured cerebellar neurons", "assay": "Measurement of uptake of BrU (transcription) in AMA-treated cerebellar neurons", "type": "cell-based, rat", "settings": "three different concentrations of AMA", "experimental": "(§1) First, solutions containing three different concentrations of AMA were added to culture media of Hela cells, primary cultured cortical neurons of rat embryo (E15), and primary cultured cerebellar neurons of rat. […] The AMA-induced cellular death was significant particularly in the primary cultured neurons and their half-life period was five days or more—the primary cultured neurons died obviously earlier than those that had not been treated with AMA. […] In this AMA-induced cellular death, neuronal cell death progressed very slowly as compared with low-potassium-induced apoptosis of cerebellar neurons.\nA cerebral cortical tissue segregated from E17 Wistar rat embryo and a cerebellar tissue segregated from P7 Wistar rat novelborn were shredded with a razor, and treated with a phosphate buffered saline (hereinafter referred to as “PBS”; pH 7.5) containing 0.25% trypsin (Gibco) at 37° C. for 20 min, with gentle shaking every 5 min. Subsequently, the reaction was quenched by replacing the PBS with DMEM containing a 50% fetal bovine serum (hereinafter referred to as “FBS”), and DNaseI (Boehringer Mannheim) was added to a final concentration of 100 μg/ml. The tissues were segregated gently by pipetting with a blue tip. […]"}, "[3]": {"test_system": "primary cultured neurons", "assay": "AMA-induced cellular death of primary cultured neurons (Trypan Blue cellular death assay)", "type": "cell-based, rat", "experimental": "as §1\nA cerebral cortical tissue segregated from E17 Wistar rat embryo and a cerebellar tissue segregated from P7 Wistar rat novelborn were shredded with a razor, and treated with a phosphate buffered saline (hereinafter referred to as “PBS”; pH 7.5) containing 0.25% trypsin (Gibco) at 37° C. for 20 min, with gentle shaking every 5 min. Subsequently, the reaction was quenched by replacing the PBS with DMEM containing a 50% fetal bovine serum (hereinafter referred to as “FBS”), and DNaseI (Boehringer Mannheim) was added to a final concentration of 100 μg/ml. The tissues were segregated gently by pipetting with a blue tip. The cells were filtrated through a nylon mesh (FALCON, pore size: […]) by centrifuge for precipatation and resuspended in DMEM additionally containing 20 mM glucose, 16 mM sodium hydrogen carbonate, 4 mM glutamine, 25 μg/ml gentamicin and 10% FBS. The suspension was added into a polylysine-coated 24-well plate (Corning) and the cells were cultured so that each well has 3×10^5 cells. After 12 hours, cytosine arabinoside was added to the culture wells to a final concentration of […] in order to prevent glial cell proliferation. […]\nThe cells were treated for 5 min with 0.4% Trypan Blue solution (Invitrogen). […] In these spots the numbers of blue-stained cells (dead cells) and non-stained cells (living cells) were counted to a total of at least 2,000."}, "[4]": {"test_system": "Hela cells", "assay": "AMA-induced cellular death of Hela cells", "type": "cell-based", "settings": "AMA-treated Hela cells", "experimental": "as §1\nThe cells were treated for 5 min with 0.4% Trypan Blue solution (Invitrogen). In each experiment, 10-20 spots were randomly selected from each of the three dishes at 100× magnification. In these spots the numbers of blue-stained cells (dead cells) and non-stained cells (living cells) were counted to a total of at least 2,000."}, "[5]": {"test_system": "cell line and primary neurons", "assay": "Genome DNA analysis for DNA ladders after AMA treatment", "type": "cell-based", "settings": "genome DNA analysis of the cell line and primary neurons after AMA treatment"}, "[6]": {"test_system": "YAP", "assay": "Northern blotting of YAP expression after AMA", "type": "cell-based, rat", "settings": "transcription stage", "experimental": "Next, in order to clarify the molecular mechanism underlying the OP (omega process), we performed microarray analysis. Expression of genes associated with AMA-induced cellular death of cortical neurons and cerebellar neurons and expression of genes associated with low-potassium-induced apoptosis of cerebellar neuron were compared. Experiment was performed twice for each type of cellular death. This microarray analysis led to the identification of 8 genes that offered different expression levels both in apoptosis and OP, and 11 genes that offered different expression levels specifically in OP. The latter set of genes contained YAP, a transcriptional activation factor (coactivator) which is known to play a key role in p73-mediated apoptosis.\nTen micrograms of total RNA extracted from the primary cultured neurons was electrophoresed on a MOPS/formaldehyde gel. The separated RNA fragments were transferred and immobilized to Hybond-N (Pharmacia) by UV cross-linking (exposure dose=120,000 μJ/cm^2). The full-length cDNA with the 61nt insert was cleaved from pBSins61 and purified by passing it through a gel and labeled with [a32P]dCTP (Amersham) using Random Primer DNA-labeling kit (Takara). The probes labeled with 32P were reacted with a nylon film at 60° C. and allowed to stand overnight for permeation. […]"}}, "data": [{"compound": "CC[C@H](C)[C@@H]1NC(=O)CNC(=O)[C@@H]2Cc3c([nH]c4cc(O)ccc34)[S+]([O-])C[C@@H](NC(=O)CNC1=O)C(=O)N[C@@H](CC(N)=O)C(=O)N1C[C@H](O)C[C@H]1C(=O)N[C@@H]([C@@H](C)[C@@H](O)CO)C(=O)N2", "note": "(stereo in doubt) [AMA, α-amanitin]", "values": [{"measurement": "transcription (uptake of BrU)", "setting": "[1]", "result": "suppressed transcription"}, {"measurement": "transcription (uptake of BrU)", "setting": "[2]", "result": "suppressed transcription"}, {"measurement": "concentration dependence of cellular death rate", "setting": "[3]; AMA 10 μg/ml to 250 μg/ml", "result": "dependent on AMA concentration"}, {"measurement": "cellular death (proportion of living cells)", "setting": "[3]; AMA-treated neurons", "result": "induces progressive cellular death"}, {"measurement": "time before half the population of the neural cells died (half-life period)", "setting": "[3]; neuronal cells treated with α-amanitin", "result": "≥ 120", "unit": "h"}, {"measurement": "cellular death (proportion of living cells)", "setting": "[4]", "result": "induces progressive cellular death"}, {"measurement": "DNA ladders", "setting": "[5]", "result": "no DNA ladders were observed"}, {"measurement": "YAP expression", "setting": "[6]", "result": "down-regulated YAP expression"}]}]}
